Reference: patent US7622466B2, “Azaindole-2-carboxamide derivatives” (Hoffman-La Roche Inc., priority 2005, dated 2009)
pKi: −log10 of the molar value.

The compounds below were run against T1, histamine 3 receptor (H3R) (Homo sapiens, UniProt Q9Y5N1) (assay: Competition binding assay with 3H-(R)α-methylhistamine on membranes of the human HR3-CHO cell line). Conditions: membrane of human HR3-CHO cell line; 3H(R)α-Methylhistamine 1 nM; Ki calculated from IC50 by Cheng-Prusoff equation.
T1 construct: expressed in transfected cells; host or cells: CHO cells (HR3-CHO cell line), membranes
T1 sequence (Q9Y5N1 whole entry): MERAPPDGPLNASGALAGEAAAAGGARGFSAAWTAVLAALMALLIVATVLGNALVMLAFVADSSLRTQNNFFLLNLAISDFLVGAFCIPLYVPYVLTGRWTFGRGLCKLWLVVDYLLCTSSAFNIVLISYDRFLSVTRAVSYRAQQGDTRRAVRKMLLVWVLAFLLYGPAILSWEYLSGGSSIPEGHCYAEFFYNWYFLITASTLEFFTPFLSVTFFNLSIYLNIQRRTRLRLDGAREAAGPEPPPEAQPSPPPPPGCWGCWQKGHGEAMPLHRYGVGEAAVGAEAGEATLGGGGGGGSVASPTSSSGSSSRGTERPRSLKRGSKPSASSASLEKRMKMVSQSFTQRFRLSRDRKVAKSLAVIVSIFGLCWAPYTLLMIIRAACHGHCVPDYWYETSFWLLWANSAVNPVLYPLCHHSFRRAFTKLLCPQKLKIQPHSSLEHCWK
Procedure: Binding Assay with ^3H-(R)α-methylhistamine
Saturation binding experiments were performed using HR3-CHO membranes prepared as described in Takahashi, K, Tokita, S., Kotani, H. (2003) J. Pharmacol. Exp. Therapeutics 307, 213-218.
An appropriate amount of membrane (60 to 80 μg protein/well) was incubated with increasing concentrations of ^3H(R)α-Methylhistamine di-hydrochloride (0.10 to 10 nM). Non specific binding was determined using a 200 fold excess of cold (R)α-Methylhistamine dihydrobromide (500 nM final concentration). The incubation was carried out at room temperature (in deep-well plates shaking for three hours). The final volume in each well was 250 μl. The incubation was followed by rapid filtration on GF/B filters (pre-soaked with 100 μl of 0.5% PEI in Tris 50 mM shaking at 200 rpm for two hours). The filtration was made using a cell-harvester and the filter plates were then washed five times with ice cold washing buffer containing 0.5 M NaCl. After harvesting, the plates were dried at 55° C. for 60 min, then we added scintillation fluid (Microscint 40, 40 microl in each well) and the amount of radioactivity on the filter was determined in Packard top-counter after shaking the plates for two hours at 200 rpm at room temperature.
Binding Buffer: 50 mM Tris-HCl pH 7.4 and 5 mM MgCl2×6H2O pH 7.4. Washing Buffer: 50 mM Tris-HCl pH 7.4 and 5 mM MgCl2×6H2O and 0.5 M NaCl pH 7.4.
Indirect measurement of affinity of H3R inverse agonists: twelve increasing concentrations (ranging from 10 μM to 0.3 nM) of the selected compounds were always tested in competition binding experiments using membrane of the human HR3-CHO cell line. An appropriate amount of protein, e.g. approximately 500 cpm binding of RAMH at Kd, were incubated for 1 hour at room temperature in 250 μl final volume in 96-well plates in presence of ^3H(R)α-Methylhistamine (1 nM final concentration=Kd). Non-specific binding was determined using a 200 fold excess of cold (R)α-Methylhistamine dihydrobromide.
All compounds were tested at a single concentration in duplicates.

`O=C(c1cc2cc(OCCCN3CCCC3)cnc2[nH]1)N1CCOCC1` [Example 5, Morpholin-4-yl-[5-(3-pyrrolidin-1-yl-propoxy)-1H-pyrrolo[2,3-b]pyridin-2-yl]-methanone] and `CC(C)N1CCC(Oc2cnc3[nH]c(C(=O)N4CCC(F)(F)CC4)cc3c2)CC1` [Example 13, (4,4-Difluoro-piperidin-1-yl)-[5-(1-isopropyl-piperidin-4-yloxy)-1H-pyrrolo[2,3-b]pyridin-2-yl]-methanone] are within 0.2 log units of each other in pKi: 7.59 for the first, 7.54 for the second.

With `CC(C)N1CCC(Oc2cnc3c(c2)cc(C(=O)N2CCC(F)(F)CC2)n3C(C)C)CC1` [Example 22, (4,4-Difluoro-piperidin-1-yl)-[1-isopropyl-5-(1-isopropyl-piperidin-4-yloxy)-1H-pyrrolo[2,3-b]pyridin-2-yl]-methanone] the pKi was 8.03.
